Test systems include RPMI-8226 leukemia; HL-60(TB) leukemia; UACC-62 melanoma; SF-539 CNS; TK-10 renal; SN12C renal; HS 578T breast; HOP-62 NSCLC; MALME-3M melanoma; MDA-MB-231 breast.
Experiment in all cases: growth of human tumour cells (NCI), 48 h

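These data come from cells grown in 96-well plates and exposed to compound for 48 hours at five concentrations. GI50 is the concentration that inhibits growth by half. Definition used: TGI = concentration required for complete inhibition of growth.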

For the compound `CCCN(CCC)c1ccc(C=O)c(OC)c1`, the GI50 with RPMI-8226 leukemia was 58.6 µM; with HL-60(TB) leukemia, 12.4 µM; in the test on UACC-62 melanoma, 16.3 µM; in the test on SF-539 CNS it was 26 µM; in the test with TK-10 renal, 24.2 µM; with SN12C renal, 32.7 µM. The GI50 is 15.5 µM with HS 578T breast, 32 µM with HOP-62 NSCLC and 18.7 µM in the test with MALME-3M melanoma. Further, the TGI with RPMI-8226 leukemia is over 100 µM; with HL-60(TB) leukemia, 38 µM; in the test on UACC-62 melanoma, 55.4 µM; with SF-539 CNS, over 100 µM; with TK-10 renal, 86.1 µM; in the test on SN12C renal, over 100 µM. Further, the TGI in the test on HS 578T breast was 94.4 µM; in the test with HOP-62 NSCLC, over 100 µM; in the test on MALME-3M melanoma it was 64.6 µM.
`CC(=O)OC1C(O)COC(Oc2c(C)c3c4c(c2O)[C@@H](C)CC[C@@H]4[C@@H](C)C[C@H]3C=C(C)C)C1O` (some centres not stated): the GI50 in the test on RPMI-8226 leukemia was 13.3 µM; in the test with UACC-62 melanoma, 16.3 µM; in the test with TK-10 renal, 14.7 µM; with SN12C renal it was 19.3 µM; with HS 578T breast, 16.8 µM; in the test on HOP-62 NSCLC it was 15.4 µM. Also, the GI50 with MALME-3M melanoma is 15.3 µM. In addition, the TGI with RPMI-8226 leukemia stood at 33.2 µM; with UACC-62 melanoma, 36 µM; in the test on TK-10 renal, 29 µM; in the test on SN12C renal, 44.5 µM; in the test with HS 578T breast, 37.2 µM; with HOP-62 NSCLC, 32.5 µM. Also, the TGI with MALME-3M melanoma came out at 30.1 µM.
For the compound `COc1ncnc2c1ncn2C/C(Br)=C(\Br)CCl`, the GI50 in the test with RPMI-8226 leukemia is 3.19 µM; with HL-60(TB) leukemia it was 2.03 µM; in the test with UACC-62 melanoma, 2.65 µM; in the test on SF-539 CNS, 2.17 µM; with TK-10 renal, 2.54 µM; in the test with MDA-MB-231 breast it was 2.4 µM. Further, the GI50 with SN12C renal was 2.44 µM; in the test on HOP-62 NSCLC, 3.9 µM; with MALME-3M melanoma, 1.49 µM. The TGI in the test with RPMI-8226 leukemia came to 16.4 µM; in the test on HL-60(TB) leukemia it was 6.32 µM; in the test on UACC-62 melanoma it was 12 µM; in the test on SF-539 CNS, 7.61 µM; in the test with TK-10 renal it was 7.64 µM; in the test on MDA-MB-231 breast it was 7.28 µM. The results for the TGI in the test on SN12C renal, in the test with HOP-62 NSCLC and in the test with MALME-3M melanoma were 9.52 µM, 14.1 µM and 3.21 µM, respectively.
As for `S=C(S)NCCCn1ccnc1`, the TGI in the test on RPMI-8226 leukemia, in the test with HL-60(TB) leukemia, with UACC-62 melanoma, in the test on SF-539 CNS, in the test on TK-10 renal and with MDA-MB-231 breast was over 100 µM each time. The TGI in the test on SN12C renal, in the test on HOP-62 NSCLC and with MALME-3M melanoma was over 100 µM in each case.
Take `COc1cc2c(C#N)n3c(c2cc1OC)C(=O)C(c1ccccc1)Oc1ccccc1-3` (configuration not stated): the GI50 in the test on SF-539 CNS was 19.8 µM; in the test on TK-10 renal it was 3.35 µM; with MDA-MB-231 breast, 4.05 µM; in the test on HS 578T breast it was 4.62 µM; in the test with HOP-62 NSCLC, 3.64 µM; with MALME-3M melanoma, over 100 µM. Also, the TGI with SF-539 CNS is over 100 µM; in the test on TK-10 renal it was 21.3 µM; with MDA-MB-231 breast it was 68.6 µM; in the test on HS 578T breast it was 65.5 µM; with HOP-62 NSCLC, over 100 µM; in the test on MALME-3M melanoma, over 100 µM.
Take `N#C/C(=C/c1cccs1)c1cccs1`: the GI50 with HL-60(TB) leukemia, in the test with UACC-62 melanoma, with SF-539 CNS, in the test on TK-10 renal, in the test with MDA-MB-231 breast and in the test on SN12C renal was over 100 µM in each case. In addition, the GI50 in the test with HS 578T breast was 99.3 µM; in the test on HOP-62 NSCLC, over 100 µM; in the test on MALME-3M melanoma, over 100 µM. Moreover, the TGI with HL-60(TB) leukemia, with UACC-62 melanoma, with SF-539 CNS, in the test on TK-10 renal, in the test on MDA-MB-231 breast and in the test on SN12C renal was over 100 µM each time. For the same compound, the TGI in the test with HS 578T breast, with HOP-62 NSCLC and with MALME-3M melanoma was over 100 µM throughout.
As for `COc1cccc(NC(=O)c2ccc(C(F)(F)F)nc2Nc2ccc(Cl)cc2C)c1`, the GI50 in the test on RPMI-8226 leukemia is 5.54 µM; with UACC-62 melanoma it was 14.2 µM; in the test with SF-539 CNS, 15.1 µM; in the test with MDA-MB-231 breast, 10.4 µM; with SN12C renal, 12.4 µM; with HS 578T breast, 6.56 µM. Further, the GI50 with HOP-62 NSCLC is 17.4 µM. Besides, the TGI in the test on RPMI-8226 leukemia is 28.4 µM; with UACC-62 melanoma, 27.2 µM; with SF-539 CNS, 30.5 µM; with MDA-MB-231 breast, 23.3 µM; with SN12C renal, 25.7 µM; in the test with HS 578T breast it was 29.3 µM. In the test with HOP-62 NSCLC, this compound showed a TGI of 32.1 µM.
As for `CC(=O)c1ccc(NCn2nc(-c3ccccc3O)oc2=S)cc1`, the GI50 in the test on HL-60(TB) leukemia was over 100 µM; in the test on UACC-62 melanoma, 35.8 µM; in the test on TK-10 renal, 67.1 µM; in the test on MDA-MB-231 breast, 37.6 µM; with SN12C renal it was 27 µM; in the test on HS 578T breast, over 100 µM. Moreover, the GI50 with HOP-62 NSCLC was over 100 µM. Besides, the TGI in the test with HL-60(TB) leukemia was over 100 µM; in the test with UACC-62 melanoma, over 100 µM; in the test on TK-10 renal it was over 100 µM; in the test with MDA-MB-231 breast, over 100 µM; in the test with SN12C renal, 64.9 µM; with HS 578T breast, over 100 µM. For the same compound, the TGI with HOP-62 NSCLC was over 100 µM.

The values above are taken from PubChem BioAssay (NCI).
